# Where two headings read alike, the source gives them in different places.
# What was measured:
# CYP3A4 = target: T1, CYP3A4 (Homo sapiens, UniProt P08684); assay: CYP-direct inhibition, CYP3A4; format: in vitro ADME
# T1 construct: from tissue; host or cells: pooled human liver microsomes
# Method: (§1) Many drugs inhibit cytochrome P450 enzymes to cause clinically significant changes in the pharmacokinetics of other drugs. In vitro cytochrome P450 inhibition, can provide crucial information in evaluating potential clinical drug-drug interactions and is useful for focusing in vivo tests to areas of concern. The cytochrome P450 inhibition assay was developed by preparing a working cocktail solution consisting of six probe substrates 10 μM ethoxy-resorufin (CYP1A2), 100 μM rosiglitazone (CYP2C8), 50 μM diclofenac (CYP2C9), 300 μM S-mephenytoin (CYP2C19), 50 μM dextromethorphan (CYP2D6), and 20 μM midazolam (CYP3A4). A mixture solution consists of 140 uL of 0.286 mg/mL of pooled human liver microsome working solution and 20 uL working solutions of test articles, standard control inhibitors, or positive control placebo and 20 uL of substrate cocktail mixture working solution was prepared. The mixture solution was pre-warm in a gentle shaking bath at 37±2° C. for 5 minutes. The enzymatic reaction started by adding 20 uL of NRS working solution to the mixture solution and incubated for 10 minutes at 37±2° C. To stop the reaction, an addition of 400 μL cold stop solution (acetonitrile containing 50 ng/mL Tolbutamide as an internal standard (I.Std.) was added to the mixture solution. The final concentration of test article, inhibitors, substrates, and cofactors are noted in Table 0.1 below. Two individual samples were prepared for each test compound. The extracted samples were vortexed and then centrifuged at 4500 rpm for 7 minutes using Eppendorf Centrifuge 5910R. 200 uL of supernatant was diluting with 200 uL of 50% Methanol into 96-DW plate for LC/MS/MS analysis
# (§2) Concentration-response plots are used to determine the effects of an inhibitor on an enzymatic reaction. A typical concentration-response plot provides fractional activity (Y axis) is plotted as a function of log inhibitor concentration (X axis). The data are fitted using a standard Sigmoidal dose-response equation which is also called a […] logistic equation. The concentration of compound that results in 50% inhibition of maximal activity is termed as the IC50 (inhibitor concentration yielding 50% inhibition). IC50 value is calculated using Prism GraphPad software, version 9. […].
# (§3) Cytochrome P450 inhibition of a drug is a key factor in determining pharmacokinetic drug-drug interactions. The objective of this study was to evaluate the inhibition potential of G9a inhibitors on six (6) major human cytochrome P450 enzymes, including CYP1A2, CYP2C8, CYP2C9, CYP2C19, CYP2D6, and CYP3A4. Inhibition was determined by using a substrate cocktail and analyzing the rate of specific metabolites formation. The cytochrome P450 inhibition assay was developed using a cocktail consisting of six (6) probe substrates ethoxy-resorufin (CYP1A2), rosiglitazone (CYP2C8), diclofenac (CYP2C9), S-mephenytoin (CYP2C19), dextromethorphan (CYP2D6), and midazolam (CYP3A4). The cocktail was incubated in human liver microsome with NADPH regenerating system (NRS) in a shaking bath at 37±2° C. The formation of specific metabolites was monitored by LC/MS/MS. Test compound was added to the cocktail-liver microsome mixture at varying concentrations and its effect on cytochrome P450 activity was determined by analyzing the rate of specific metabolite formation. The percent inhibition was calculated and plotted with reference to the concentration, and the IC50 value for inhibition was derived by fitting the data with a using log(inhibitor) vs. normalized response with variable slope least squares fit by Graphpad Prism® software. […].
# CYP2C9 = target: T2, CYP2C9 (Homo sapiens, UniProt P11712); assay: CYP-direct inhibition, CYP2C9; format: in vitro ADME
# T2 construct: from tissue; host or cells: pooled human liver microsomes
# T2 sequence (P11712 whole entry): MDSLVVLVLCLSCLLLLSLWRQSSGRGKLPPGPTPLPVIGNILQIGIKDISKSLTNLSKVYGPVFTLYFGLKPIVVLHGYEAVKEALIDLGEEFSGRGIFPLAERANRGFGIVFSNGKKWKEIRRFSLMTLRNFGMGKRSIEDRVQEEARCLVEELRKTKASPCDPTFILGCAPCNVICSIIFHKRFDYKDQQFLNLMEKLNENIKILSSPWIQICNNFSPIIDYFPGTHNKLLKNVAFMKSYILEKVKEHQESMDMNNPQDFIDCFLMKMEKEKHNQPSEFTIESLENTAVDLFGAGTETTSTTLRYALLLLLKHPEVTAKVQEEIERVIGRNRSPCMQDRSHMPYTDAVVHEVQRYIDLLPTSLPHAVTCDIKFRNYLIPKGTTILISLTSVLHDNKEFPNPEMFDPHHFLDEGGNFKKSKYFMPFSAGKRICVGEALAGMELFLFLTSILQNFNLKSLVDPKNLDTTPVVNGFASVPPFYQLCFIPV
# Method: as §1, §2, §3
# PAMPA permeability = details: for Papp at 5 h, 20 μM: PAMPA, 5 hours at RT
# CYP2D6 = target: T3, CYP2D6 (Homo sapiens, UniProt P10635); assay: CYP-direct inhibition, CYP2D6; format: in vitro ADME
# T3 construct: from tissue; host or cells: pooled human liver microsomes
# T3 sequence (P10635 whole entry): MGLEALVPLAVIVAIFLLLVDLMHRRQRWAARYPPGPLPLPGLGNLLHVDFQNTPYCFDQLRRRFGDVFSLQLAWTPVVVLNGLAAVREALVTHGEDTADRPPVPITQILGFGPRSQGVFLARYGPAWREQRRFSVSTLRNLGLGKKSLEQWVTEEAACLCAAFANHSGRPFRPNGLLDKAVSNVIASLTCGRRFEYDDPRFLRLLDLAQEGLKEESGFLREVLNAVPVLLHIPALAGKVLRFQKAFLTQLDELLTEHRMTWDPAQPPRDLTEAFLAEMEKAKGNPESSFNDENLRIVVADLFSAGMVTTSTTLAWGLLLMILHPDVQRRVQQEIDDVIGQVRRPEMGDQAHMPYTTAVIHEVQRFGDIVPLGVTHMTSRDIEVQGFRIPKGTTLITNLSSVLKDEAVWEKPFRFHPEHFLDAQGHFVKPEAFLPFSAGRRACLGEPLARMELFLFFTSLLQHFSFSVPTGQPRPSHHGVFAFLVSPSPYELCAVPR
# Method: as §1, §2, §3
# [1] = test system: HT-29 colorectal cancer cells; assay: HT-29 cell viability (Real-Time-Glo); format: cell-based; details: for IC50: Homo sapiens, HT-29, 72 hr, read-out: IC50, Cell line: HT-29; for growth of HT-29 colorectal cancer cells: luminescence at 72 h
# Method: Equal volume of 2× RealTime-Glo™ reagent (2 μl of MT Cell Viability Substrate 1,000×, and 2 μl of NanoLuc® Enzyme 1,000×, per 1 ml of media, Promega) was added to each well and cells were incubated at 37° C. Luminescence was evaluated at 72 h.
# To determine the plating density for cell viability assays, for each cell line, cells were counted and diluted to final densities of 2.5, 5, 10 and 20 thousand per 100 μl of their respective growth media per well in 96 well plates. A Promega Real-Time-Glo cell viability kit was used to determine the optimal concentration for cell plating so that each cell line would be within the linear part of its growth curve after 72 hrs in culture. […] Test compounds were then added at different concentrations for the creation of six-point curve and cell density was determined using the Promega Real-Time-Glo cell viability kit after 24, 48, and 72 hrs in culture.
# Specifically, the Promega Real-Time-Glo cell viability kit was used to determine the optimal concentration for cell plating so that each cell line would be within the linear part of its growth curve after 72 hrs in culture. […] Test compounds are then added at different concentrations for the creation of six-point curve and cell density is determined using the Promega Real-Time-Glo cell viability kit after 24, 48, and 72 hrs in culture. […]
# CYP1A2 = target: T4, CYP1A2 (Homo sapiens, UniProt P05177); assay: CYP-direct inhibition, CYP1A2; format: in vitro ADME
# T4 construct: from tissue; host or cells: pooled human liver microsomes
# T4 sequence (P05177 1-516): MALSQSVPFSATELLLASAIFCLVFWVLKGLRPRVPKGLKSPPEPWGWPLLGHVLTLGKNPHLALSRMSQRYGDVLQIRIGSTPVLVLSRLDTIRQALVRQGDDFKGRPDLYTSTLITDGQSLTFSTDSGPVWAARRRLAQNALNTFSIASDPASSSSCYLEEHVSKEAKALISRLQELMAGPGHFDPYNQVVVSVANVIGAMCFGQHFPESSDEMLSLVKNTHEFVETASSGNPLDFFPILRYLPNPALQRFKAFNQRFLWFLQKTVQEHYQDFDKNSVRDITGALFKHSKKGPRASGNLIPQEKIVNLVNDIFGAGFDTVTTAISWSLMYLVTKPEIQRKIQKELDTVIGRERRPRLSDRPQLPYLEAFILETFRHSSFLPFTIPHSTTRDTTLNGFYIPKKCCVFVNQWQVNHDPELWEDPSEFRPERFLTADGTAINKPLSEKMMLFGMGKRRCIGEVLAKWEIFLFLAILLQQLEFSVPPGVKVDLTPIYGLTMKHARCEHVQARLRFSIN
# Method: as §1, §2, §3
# [2] = PAMPA permeability Classification, 20 μM donor
# [3] = Permeability, Pe, 20 μM donor in PBS/MeOH 90:10
# [4] = human liver microsome, substrate dextromethorphan, read-out: IC50 CYP-2D6
# [5] = human liver microsome, substrate ethoxy-resorufin, read-out: IC50 CYP-1A2
# T1 sequence (P08684 whole entry): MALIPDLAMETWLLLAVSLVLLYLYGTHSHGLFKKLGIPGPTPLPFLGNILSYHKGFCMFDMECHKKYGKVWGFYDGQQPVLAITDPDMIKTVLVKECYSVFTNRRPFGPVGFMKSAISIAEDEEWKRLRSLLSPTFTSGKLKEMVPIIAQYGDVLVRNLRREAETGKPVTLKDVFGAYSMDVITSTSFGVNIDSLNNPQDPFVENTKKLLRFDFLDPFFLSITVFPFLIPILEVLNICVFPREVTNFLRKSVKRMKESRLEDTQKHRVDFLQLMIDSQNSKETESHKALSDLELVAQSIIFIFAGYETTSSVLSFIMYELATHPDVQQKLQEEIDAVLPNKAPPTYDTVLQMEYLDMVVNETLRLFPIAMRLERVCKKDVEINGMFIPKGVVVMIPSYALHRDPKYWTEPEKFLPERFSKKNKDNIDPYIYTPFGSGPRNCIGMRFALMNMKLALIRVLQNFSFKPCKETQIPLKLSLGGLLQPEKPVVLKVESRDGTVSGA
IC50 (CYP3A4) [µM],IC50 (CYP2C9) [µM],permeability / oral absorption potential (in words) (PAMPA permeability),"Papp at 5 h, 20 μM (PAMPA permeability; [2]) [×10⁻⁶ cm/s]","Papp at 5 h, 20 μM (PAMPA permeability; [3]) [×10⁻⁶ cm/s]",IC50 (CYP2D6; [4]) [µM],IC50 [1] [µM],IC50 (CYP1A2; [5]) [µM],Structure (SMILES),growth of HT-29 colorectal cancer cells [1],IC50 (CYP2D6) [µM],IC50 (CYP1A2) [µM]
> 100,> 100,very high permeability,> 1.5,6.38,17.6,1 to 5,> 100,"COc1cc2c(NC3CCOCC3)nc(N3CCC(F)(F)CC3)nc2cc1OCCCN1CCCC1 [Compound 2, 2-(4,4-difluoropiperidin-1-yl)-6-methoxy-7-(3-(pyrrolidin-1-yl)propoxy)-N-(tetrahydro-2H-pyran-4-yl)quinazolin-4-amine]",potent anti-cancer activity,–,–
> 100,> 100,very high permeability,> 1.5,1.77,13.3,1 to 5,> 100,"COCCNc1nc(N2CCC(F)(F)CC2)nc2cc(OCCCN3CCCC3)c(OC)cc12 [Compound 4, 2-(4,4-difluoropiperidin-1-yl)-6-methoxy-N-(2-methoxyethyl)-7-(3-(pyrrolidin-1-yl)propoxy)quinazolin-4-amine]",potent anti-cancer activity,–,–
> 100,> 100,–,< 0.055,0.00225,4.72,1 to 5,> 100,"COc1cc2c(NC3CCN(C(C)C)CC3)nc(-n3ccnc3)nc2cc1OCCCN1CCCC1 [Compound 156, 2-(1H-imidazol-1-yl)-N-(1-isopropylpiperidin-4-yl)-6-methoxy-7-(3-(pyrrolidin-1-yl)propoxy)quinazolin-4-amine]",–,–,–
> 100,> 100,–,< 0.055,0.00475,> 100,–,> 100,"COc1cc2c(NC3CCS(=O)(=O)CC3)nc(N3CCN(C)CC3)nc2cc1OCCCN1CCCC1 [Compound 109, 4-((6-methoxy-2-(4-methylpiperazin-1-yl)-7-(3-(pyrrolidin-1-yl)propoxy)quinazolin-4-yl)amino)tetrahydro-2H-thiopyran 1,1-dioxide]",–,–,–
> 100,> 100,–,< 0.055,0.00431,86.2,–,> 100,"COc1cc2c(NC3CCOCC3)nc(N3CCCN(C)CC3)nc2cc1OCCCN1CCCC1 [Compound 237, 6-methoxy-2-(4-methyl-1,4-diazepan-1-yl)-7-(3-(pyrrolidin-1-yl)propoxy)-N-(tetrahydro-2H-pyran-4-yl)quinazolin-4-amine]",–,–,–
> 100,> 100,–,0.055 to 1.5,0.584,12,1 to 5,> 100,"COc1cc2c(Nc3ccncc3)nc(N3CCC(F)(F)CC3)nc2cc1OCCCN1CCCC1 [Compound 7, 2-(4,4-difluoropiperidin-1-yl)-6-methoxy-N-(pyridin-4-yl)-7-(3-(pyrrolidin-1-yl)propoxy)quinazolin-4-amine]",–,–,–
> 100,> 100,–,< 0.055,0.00649,> 100,–,> 100,"COc1cc2c(NCC3CCN(C)CC3)nc(N3CCC(F)(F)CC3)nc2cc1OCCCN1CCCC1 [Compound 5, 2-(4,4-difluoropiperidin-1-yl)-6-methoxy-N-((1-methylpiperidin-4-yl)methyl)-7-(3-(pyrrolidin-1-yl)propoxy)quinazolin-4-amine]",–,–,–
> 100,> 100,–,< 0.055,0.000285,77.9,–,> 100,"COc1cc2c(NC3CCN(C(C)C)CC3)nc(N3CCC3)nc2cc1OCCCN1CCCC1 [Compound 234, 2-(azetidin-1-yl)-N-(1-isopropylpiperidin-4-yl)-6-methoxy-7-(3-(pyrrolidin-1-yl)propoxy)quinazolin-4-amine]",–,–,–
> 100,> 100,–,< 0.055,0.0476,24.8,–,> 100,"COc1cc2c(NC3CCOCC3)nc(N3CCCC3)nc2cc1OCCCN1CCCC1 [Compound 164, 6-methoxy-2-(pyrrolidin-1-yl)-7-(3-(pyrrolidin-1-yl)propoxy)-N-(tetrahydro-2H-pyran-4-yl)quinazolin-4-amine]",–,–,–
> 100,> 100,–,< 0.055,0.0227,50.9,–,> 100,"COc1cc2c(N[C@@H]3CCCNC3)nc(N3CCCC3)nc2cc1OCCCN1CCCC1 [Compound 159, (R)-6-methoxy-N-(piperidin-3-yl)-2-(pyrrolidin-1-yl)-7-(3-(pyrrolidin-1-yl)propoxy)quinazolin-4-amine]",–,–,–
> 100,> 100,–,0.055 to 1.5,0.0754,23,–,63.1,"COc1cc2c(NC3CCOCC3)nc(N3CCC3)nc2cc1OCCCN1CCCC1 [Compound 174, 2-(azetidin-1-yl)-6-methoxy-7-(3-(pyrrolidin-1-yl)propoxy)-N-(tetrahydro-2H-pyran-4-yl)quinazolin-4-amine]",–,–,–

Structure (SMILES),IC50 (CYP3A4) [µM],IC50 (CYP2C9) [µM],permeability / oral absorption potential (in words) (PAMPA permeability),"Papp at 5 h, 20 μM (PAMPA permeability; [2]) [×10⁻⁶ cm/s]","Papp at 5 h, 20 μM (PAMPA permeability; [3]) [×10⁻⁶ cm/s]",IC50 (CYP2D6; [4]) [µM],IC50 [1] [µM],IC50 (CYP1A2; [5]) [µM],growth of HT-29 colorectal cancer cells [1],IC50 (CYP2D6) [µM],IC50 (CYP1A2) [µM]
"COc1cc2c(NC3CCN(C(C)C)CC3)nc(N3CCC(F)(F)CC3)nc2cc1OCCCN1CCCC1 [Compound 400, 2-(4,4-difluoropiperidin-1-yl)-N-(1-isopropylpiperidin-4-yl)-6-methoxy-7-(3-(pyrrolidin-1-yl)propoxy)quinazolin-4-amine, reference compound]",> 100,> 100,–,–,–,–,5 to 10,–,–,28.8,> 100
